# Legend:
# [1] = system: HCC-2998; assay: cells; conditions: Homo sapiens
# [2] = system: RXF 393; assay: cells; conditions: Homo sapiens
# [3] = system: K-562; assay: cells; conditions: Homo sapiens
# [4] = system: SN12C; conditions: Renal cancer, five-dose 0.01–100 µM
# [5] = system: A498; conditions: A498, Renal cancer; five-dose 0.01–100 µM
# [6] = system: CAKI-1; conditions: CAKI-1, Renal cancer; five-dose 0.01–100 µM
# [7] = system: HOP-92; assay: cells; conditions: Homo sapiens
# [8] = system: PC-3; assay: cells; conditions: Homo sapiens
# [9] = system: SR; assay: cells; conditions: Homo sapiens
# [10] = system: SK-OV-3; conditions: SK-OV-3, Ovarian cancer; five-dose 0.01–100 µM
# [11] = system: MCF-7 cells; assay: Cell cycle analysis (PI, flow cytometry); assay type: cell-based, human; conditions: MCF-7, 10 µM, 48 h; DMSO control 24.95%
# Experimental: Figure 5. Flow cytometric analyses: cell cycle distribution analysis using PI staining method in which MCF-7 cells were treated by 6i (10 µM) and DMSO (negative control; NC) for 48 h; (A) 6i, (B) DMSO, (C) cells percentage in different phases (G0-G1, S, G2/M); apoptotic induction using annexin-V-FITC/PI staining method in which cancer cells were treated by 6i (10 µM) and DMSO (negative control; NC) for 24 h; (D) 6i, (E) DMSO, (F) histogram for induction of apoptosis.
# The cell cycle assay was carried out according to the previously reported[36]^,[37]. Briefly, in a six-well plate, 2 ml of MCF-7 cells were seeded per well and incubated overnight at 37 °C and CO2 (5%). After 12 h incubation with serum-free medium, they were treated with 10 μM of 6i, incubated for 48 h, then washed twice with 1× PBS, trypsinised and centrifuged for 5 min (500 xg) at 4 °C. And then the cell pellet, in ice-cold 1× PBS, was fixed with absolute ethanol at −20 °C for 2 h, washed with 1× PBS ice-cold solution and finally stained with propidium iodide (PI)/RNase (Abcam, ab139418) for 0.5 h at 25 °C in the dark. flow cytometry determined the DNA content in cell phases using BD FACS Calibur[36]^,[37].
# [12] = system: NCI-H522; assay: cells; conditions: Homo sapiens
# [13] = system: DU-145; assay: cells; conditions: Homo sapiens
# [14] = system: ACHN; assay: cells; conditions: Homo sapiens
# [15] = system: OVCAR-5; conditions: OVCAR-5, Ovarian cancer; five-dose 0.01–100 µM
# [16] = system: HCT-15; conditions: HCT-15, Colon cancer; five-dose 0.01–100 µM
# [17] = system: IGROV1; conditions: IGROV1, Ovarian cancer; five-dose 0.01–100 µM
# [18] = system: OVCAR-8; conditions: OVCAR-8, Ovarian cancer; five-dose 0.01–100 µM
compound,measurement,setting,value
CCOC(=O)CC[C@H](NC(=O)c1ccc(NC(=O)Cn2cnc3c(c(C)nn3-c3ccc(Br)cc3)c2=O)cc1)C(=O)OCC [Compound 6i],GI50,[1]; HCC 2998,35.1 µM
same,CC50,"[1]; HCC 2998, read-out: LC50",> 100 µM
same,GI50,[2]; RXF 393,15.9 µM
same,CC50,"[2]; RXF 393, read-out: LC50",> 100 µM
same,GI50,[3]; K562,> 100 µM
same,CC50,"[3]; K562, read-out: LC50",> 100 µM
same,TGI,[4],>100 µM
same,TGI,[5],48.1 µM
same,TGI,[6],22.1 µM
same,GI50,[7]; HOP-92,6.01 µM
same,CC50,"[7]; HOP-92, read-out: LC50",66.2 µM
same,GI50,[8]; PC-3,5.79 µM
same,CC50,"[8]; PC-3, read-out: LC50",47.7 µM
same,GI50,[9],71 µM
same,CC50,[9]; read-out: LC50,> 100 µM
same,TGI,[10],67.3 µM
same,percentage of S-phase cells,[11],36.29%
same,GI50,[12]; NCI-H522,17.1 µM
same,CC50,"[12]; NCI-H522, read-out: LC50",85 µM
same,GI50,[13]; DU-145,7.47 µM
same,CC50,"[13]; DU-145, read-out: LC50",> 100 µM
same,GI50,[14],15.1 µM
same,CC50,[14]; read-out: LC50,78.3 µM
same,TGI,[15],56.3 µM
same,TGI,[16],>100 µM
same,TGI,[17],74.2 µM
same,TGI,[18],>100 µM

# From paper PMC10120551, “Novel Glu-based pyrazolo[3,4-d]pyrimidine analogues: design, synthesis and biological evaluation as DHFR and TS dual inhibitors” (Journal of Enzyme Inhibition and Medicinal Chemistry, 2023)
